Results taken from patent US7332501B2, “Indol-3-yl-carbonyl-spiro-piperidine derivatives as V1a receptor antagonists” (Hoffmann-La Roche Inc., priority 2005, dated 2008).

Each compound was assayed against T1, human V1a receptor (Homo sapiens, UniProt P37288) (assay: human V1a receptor binding (3H-Vasopressin SPA, HEK293 membranes)). Settings: displacement of 4 nM 3H-Vasopressin, membranes of HEK293 cells transiently transfected with human V1a receptor; Ki from IC50 by Cheng-Prussoff.
T1 construct: expressed in transfected cells; host or cells: HEK293 cells, transiently transfected; cell membranes
T1 sequence (P37288 whole entry): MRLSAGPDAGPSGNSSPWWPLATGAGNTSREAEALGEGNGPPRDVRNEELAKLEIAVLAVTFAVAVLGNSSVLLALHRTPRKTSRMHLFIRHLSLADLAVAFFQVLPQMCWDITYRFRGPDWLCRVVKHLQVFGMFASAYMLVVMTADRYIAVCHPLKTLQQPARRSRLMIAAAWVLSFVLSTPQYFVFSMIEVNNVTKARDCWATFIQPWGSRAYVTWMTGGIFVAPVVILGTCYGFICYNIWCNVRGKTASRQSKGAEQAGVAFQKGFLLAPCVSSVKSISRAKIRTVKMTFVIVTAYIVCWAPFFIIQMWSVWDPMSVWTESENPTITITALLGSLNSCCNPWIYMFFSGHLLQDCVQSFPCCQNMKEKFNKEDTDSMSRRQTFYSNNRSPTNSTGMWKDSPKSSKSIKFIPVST
Description: The human V1a receptor was cloned by RT-PCR from total human liver RNA. The coding sequence was subcloned in an expression vector after sequencing to confirm the identity of the amplified sequence. […] Cell membranes were prepared from HEK293 cells transiently transfected with the expression vector and grown in 20 liter fermenters with the following protocol.
50 g cells are resuspended in 30 ml freshly prepared ice cold Lysis buffer (50 mM HEPES, 1 mM EDTA, 10 mM MgCl2 adjusted to pH=7.4+complete cocktail of protease inhibitor (Roche Diagnostics)). The cells are homogenized with Polytron for 1 min and sonicated on ice for 2×2 minutes at 80% intensity (Vibracell sonicator). The preparation is centrifuged 20 min at 500 g at 4° C., the pellet is discarded and the supernatant centrifuged 1 hour at 43,000 g at 4° C. (19,000 rpm). The pellet is resuspended in 12.5 ml Lysis buffer+12.5 ml Sucrose 20% and homogenized using a Polytron for 1-2 min. The protein concentration is determined by the Bradford method and aliquots are stored at −80° C. until use. For binding studies 60 mg Yttrium silicate SPA beads (Amersham) are mixed with an aliquot of membrane in binding buffer (50 mM Tris, 120 mM NaCl, 5 mM KCl, 2 mM CaCl2, 10 mM MgCl2) for 15 minutes with mixing. 50 ul of bead/membrane mixture is then added to each well of a 96 well plate, followed by 50 ul of 4 nM 3H-Vasopressin (American Radiolabeled Chemicals). For total binding measurement 100 ul of binding buffer are added to the respective wells, for non-specific binding 100 ul of […] cold vasopressin and for compound testing 100 ul of a serial dilution of each compound in 2% DMSO. The plate is incubated 1 h at room temperature, centrifuged 1 min at 1000 g and counted on a Packard Top-Count. Non-specific binding counts are subtracted from each well and data is normalized to the maximum specific binding set at 100%. To calculate an IC 50 the curve is fitted using a non-linear regression model (XLfit), and the Ki is calculated using the Cheng-Prussoff equation.

SMILES | Ki [nM]
O=C(c1c[nH]c2cc(Cl)ccc12)N1CCC2(CC1)OCc1ccccc12 [Example 69, 1′-[(6-chloro-1H-indol-3-yl)carbonyl]-3H-spiro[2-benzofuran-1,4′-piperidine]] | 4.3
Cn1cncc1Cn1cc(C(=O)N2CCC3(CC2)OCc2ccccc23)c2ccc(Cl)cc21 [Example 238] | 1.9
COCC1(Cn2cc(C(=O)N3CCC4(CC3)OC(=O)c3ccccc34)c3ccc(Cl)cc32)CC1 [Example 192, 1′-[(6-Chloro-1-{[1-(methoxymethyl)cyclopropyl]methyl}-1H-indol-3-yl)carbonyl]-3H-spiro[2-benzofuran-1,4′-piperidin]-3-one] | 2.4
O=C(c1c[nH]c2cc(Cl)ccc12)N1CCC2(CC1)C(=O)Nc1ccc(Br)cc12 [Example 280, 5-Bromo-1′-[(6-chloro-1H-indol-3-yl)carbonyl]spiro[indole-3,4′-piperidin]-2(1H)-one] | 67.6
O=C(c1cn(Cc2cccc(F)c2)c2cc(Cl)ccc12)N1CCC2(CC1)OCc1ccccc12 [Example 220] | 1
COc1ccc2c(c1)C(=O)OC21CCN(C(=O)c2c(C)n(Cc3ccccc3)c3ccccc23)CC1 [Example 13, 1′-[(1-benzyl-2-methyl-1H-indol-3-yl)carbonyl]-5-methoxy-3H-spiro[2-benzofuran-1,4′-piperidin]-3-one] | 9.5
O=C1OC2(CCN(C(=O)c3cn(Cc4cc(F)cc(F)c4)c4cc(Cl)ccc34)CC2)c2ccccc21 [Example 133, 1′-{[6-Chloro-1-(3,5-difluorobenzyl)-1H-indol-3-yl]carbonyl}-3H-spiro[2-benzofuran-1,4′-piperidin]-3-one] | 0.9
O=C1OC2(CCN(C(=O)c3c4n(c5cc(Cl)ccc35)CCNC4=O)CC2)c2ccc(F)cc21 [Example 176, 1′-[(7-Chloro-1-oxo-1,2,3,4-tetrahydropyrazino[1,2-a]indol-10-yl)carbonyl]-5-fluoro-3H-spiro[2-benzofuran-1,4′-piperidin]-3-one] | 14.8
CN(C)CCn1cc(C(=O)N2CCC3(CC2)COc2ccccc23)c2ccc(Cl)cc21 [Example 81, 2-[6-chloro-3-(1′H-spiro[1-benzofuran-3,4′-piperidin]-1′-ylcarbonyl)-1H-indol-1-yl]-N,N-dimethylethanamine] | 5
Cc1cc2c(C(=O)N3CCC4(CC3)OCc3ccccc34)cn(CC(=O)N(C)C)c2cc1Cl [Example 213, 2-[6-Chloro-5-methyl-3-(1′H,3H-spiro[2-benzofuran-1,4′-piperidin]-1′-ylcarbonyl)-1H-indol-1-yl]-N,N-dimethylacetamide] | 3.3
CC(C)(C)OC(=O)N1CCn2c(c(C(=O)N3CCC4(CC3)OCc3ccccc34)c3ccccc32)C1 [Example 274, tert-Butyl 10-(1′H,3H-spiro[2-benzofuran-1,4′-piperidin]-1′-ylcarbonyl)-3,4-dihydropyrazino[1,2-a]indole-2(1H)-carboxylate] | 25.1
O=C1OC2(CCN(C(=O)c3cn(CCC4CCOCC4)c4cc(Cl)ccc34)CC2)c2ccccc21 [Example 196, 1′-({6-Chloro-1-[2-(tetrahydro-2H-pyran-4-yl)ethyl]-1H-indol-3-yl}carbonyl)-3H-spiro[2-benzofuran-1,4′-piperidin]-3-one] | 1.4
Cc1cc(Cn2cc(C(=O)N3CCC4(CC3)OCc3ccccc34)c3ccc(Cl)cc32)nn1C [Example 240] | 2

Now from value to compound:

Ki [nM] | SMILES
2.9 | Cc1noc(C)c1Cn1cc(C(=O)N2CCC3(CC2)OC(=O)c2cc(F)ccc23)c2ccc(Cl)cc21 [Example 186, 1′-({6-Chloro-1-[(3,5-dimethylisoxazol-4-yl)methyl]-1H-indol-3-yl}carbonyl)-5-fluoro-3H-spiro[2-benzofuran-1,4′-piperidin]-3-one]
3 | O=C1OC2(CCN(C(=O)c3cn(Cc4cccnc4)c4cc(Cl)ccc34)CC2)c2ccccc21 [Example 172, 1′-{[6-Chloro-1-(pyridin-3-ylmethyl)-1H-indol-3-yl]carbonyl}-3H-spiro[2-benzofuran-1,4′-piperidin]-3-one]
2.4 | O=C1OC2(CCN(C(=O)c3cn(Cc4ccncc4)c4cc(Cl)ccc34)CC2)c2ccc(F)cc21 [Example 166, 1′-{[6-Chloro-1-(pyridin-4-ylmethyl)-1H-indol-3-yl]carbonyl}-5-fluoro-3H-spiro[2-benzofuran-1,4′-piperidin]-3-one]
1.5 | O=C1OC2(CCN(C(=O)c3cn(Cc4ccccn4)c4cc(Cl)ccc34)CC2)c2ccccc21 [Example 180, 1′-{[6-Chloro-1-(pyridin-2-ylmethyl)-1H-indol-3-yl]carbonyl}-3H-spiro[2-benzofuran-1,4′-piperidin]-3-one]
4.3 | Cc1cc(Cn2cc(C(=O)N3CCC4(CC3)OC(=O)c3cc(F)ccc34)c3ccc(Cl)cc32)c(Cl)nn1 [Example 165, 1′-({6-Chloro-1-[(3-chloro-6-methylpyridazin-4-yl)methyl]-1H-indol-3-yl}carbonyl)-5-fluoro-3H-spiro[2-benzofuran-1,4′-piperidin]-3-one]
6.8 | O=C1OC2(CCN(C(=O)c3c[nH]c4cc(Cl)ccc34)CC2)c2ccc(F)cc21 [Example 19, 1′-[(6-chloro-1H-indol-3-yl)carbonyl]-5-fluoro-3H-spiro[2-benzofuran-1,4′-piperidin]-3-one]
5 | O=C1OC2(CCN(C(=O)c3cn(-c4ccccn4)c4cc(Cl)ccc34)CC2)c2ccc(F)cc21 [Example 160, 1-[(6-Chloro-1-pyridin-2-yl-1H-indol-3-yl)carbonyl]-5-fluoro-3H-spiro[2-benzofuran-1,4′-piperidin]-3-one]
2 | O=C(Cn1cc(C(=O)N2CCC3(CC2)OC(=O)c2cc(F)ccc23)c2ccc(Cl)cc21)c1cccc(F)c1 [Example 144, 1′-({6-Chloro-1-[2-(3-fluorophenyl)-2-oxoethyl]-1H-indol-3-yl}carbonyl)-5-fluoro-3H-spiro[2-benzofuran-1,4′-piperidin]-3-one]
2.2 | Cc1cc(Cn2cc(C(=O)N3CCC4(CC3)OC(=O)c3cc(F)ccc34)c3ccc(Cl)cc32)nn1C [Example 185, 1′-({6-Chloro-1-[(1,5-dimethyl-1H-pyrazol-3-yl)methyl]-1H-indol-3-yl}carbonyl)-5-fluoro-3H-spiro[2-benzofuran-1,4′-piperidin]-3-one]
24 | CN(C)CCNC(=O)Cn1cc(C(=O)N2CCC3(CC2)OC(=O)c2ccccc23)c2ccc(Cl)cc21 [Example 119, 2-{6-Chloro-3-[(3-oxo-1′H,3H-spiro[2-benzofuran-1,4′-piperidin]-1′-yl)carbonyl]-1H-indol-1-yl}-N-[2-(dimethylamino)ethyl]acetamide]
1.4 | O=C(c1cn(Cc2cncnc2)c2cc(Cl)ccc12)N1CCC2(CC1)OCc1ccccc12 [Example 235]
2 | CC(C)(C)OC(=O)Cn1cc(C(=O)N2CCC3(CC2)OC(=O)c2cc(F)ccc23)c2ccc(Cl)cc21 [Example 112, tert-Butyl {6-chloro-3-[(5-fluoro-3-oxo-1′H,3H-spiro[2-benzofuran-1,4′-piperidin]-1′-yl)carbonyl]-1H-indol-1-yl}acetate]
4.1 | NC(=O)Cn1cc(C(=O)N2CCC3(CC2)OCc2ccccc23)c2ccc(Cl)cc21 [Example 250, 2-[6-Chloro-3-(1′H,3H-spiro[2-benzofuran-1,4′-piperidin]-1′-ylcarbonyl)-1H-indol-1-yl]acetamide]
7.6 | O=C1OC2(CCN(C(=O)c3cn(-c4ccccn4)c4cc(Cl)ccc34)CC2)c2ccccc21 [Example 159, 1-[(6-Chloro-1-pyridin-2-yl-1H-indol-3-yl)carbonyl]-3H-spiro[2-benzofuran-1,4′-piperidin]-3-one]
10.8 | O=C1OC2(CCN(C(=O)c3c(C(=O)N4CCCCC4)[nH]c4cc(Cl)ccc34)CC2)c2ccc(F)cc21 [Example 33, 1′-{[6-chloro-2-(piperidin-1-ylcarbonyl)-1H-indol-3-yl]carbonyl}-5-fluoro-3H-spiro[2-benzofuran-1,4′-piperidin]-3-one]
2.6 | O=C(c1cn(CCO)c2cc(Cl)ccc12)N1CCC2(CC1)OCc1ccccc12 [Example 259, 2-[6-Chloro-3-(1′H,3H-spiro[2-benzofuran-1,4′-piperidin]-1′-ylcarbonyl)-1H-indol-1-yl]ethanol]
1.5 | CS(=O)(=O)NCCn1cc(C(=O)N2CCC3(CC2)OCc2ccccc23)c2ccc(Cl)cc21 [Example 271, N-{2-[6-Chloro-3-(1′H,3H-spiro[2-benzofuran-1,4′-piperidin]-1′-ylcarbonyl)-1H-indol-1-yl]ethyl}methanesulfonamide]
